Experiment [1] relates to P. aeruginosa LESB58. As to conditions: LESB58. Here is the method: (10−4 M final concentrations). At selected time intervals, 100 μl of reaction mixture was collected, quenched by 200 μl 95% EtOH, and adjusted at pH 2 to prevent peptide adsorption to serum proteins. […] Supernatants were analyzed by RP-HPLC on an Xbridge C18 column with a linear gradient of water, 0.08% TFA, and acetonitrile with 1% TFA. HPLC peak areas were used to calculate the percentages of intact compound remaining at the various time points. MIC and MBC values were determined in triplicate in many ESKAPE clinical isolates, including a dozen MDR S. aureus, by the broth microdilution method. Peptidomimetics and antibiotics were assayed in a concentration range of 1 to 128 μM. […] After every hour of culture for 4 h, serial dilutions were plated on BHI plates and incubated overnight at 37°C, and then the CFUs were counted and expressed as log CFU/ml. […]
For 15 d in MHB, MICs were determined daily for each pseudopeptide and their antibiotic controls. […] The suspension was diluted in MHB or CAMHB (10^6 cells/ml) and then used to determine the MIC of the same compound determined by micro broth dilution. […] To control compound stability, peptide solution MICs were determined during and at the end of the 15 d and were compared to cells unexposed to antibiotics. In vivo resistance was also assessed in treated mice (1.5 mg.kg^−1) for 4 d (sepsis) or 6 d (skin abscesses). […]

Experiment [2] has as its system S. aureus Newman. The experiment can be described thus: SEM and TEM after treatment at MIC. The class given is cell-based. As to conditions: S. aureus treated at the MIC, 2 h 37°C. Here is the method:
S. aureus Newman and E. coli K12 were cultured in MHB to an OD600 of 0.5 (10^8 CFU/ml). After adding peptides, samples were incubated at 160 rpm for 2 h at 37°C before centrifugation. Bacteria were exposed to pseudopeptide concentrations at their MIC. Untreated controls were prepared under identical conditions. Cell pellets were obtained after cell suspension centrifugation (1,000–3,000g for 5 min). […] S. aureus Newman samples were embedded in 2% agar and dehydrated in a graded series of increasing ethanol concentrations (50, 70, 90, and 100% v/v). For E. coli K12, the samples were placed on a 0.2 μm filter disc, dehydrated in a series of increasing ethanol concentrations, and vacuum dried for 48 h. For SEM observation, specimens were obtained after preparation with a Leica EM CPD300 critical point dryer. A Leica EM ACE200 was used for gold palladium metallization for 30 s. Sample observation was performed with a JEOL JSM-6301F microscope at 7 kV with a 15 mm work distance. TEM was also used to visualize the morphology and intracellular alteration of peptide-treated bacterial cells. For this, bacteria were grown and incubated with AMPs as described above for SEM sample preparation, and controls were prepared in standard medium. Cell pellets were also prepared as described above. […]

Starred links: 1 amine or outer side, 2 acyl side, 3 side chain; linkers in the order of their positions; H or OH if unused. Non-standard residues stand in square brackets, D forms with d. Residues, ends and D or L forms follow the SMILES beside them. azaβ3(1Nal) = O=C(CN(Cc1cccc2ccccc12)N[*:1])[*:2]

Broadly, the MIC is the smallest concentration in the dilution series that meets the test's criterion for growth inhibition. For the compound `CC(C)[C@@H]1NC(=O)[C@H](CCCNC(=N)N)NC(=O)[C@H](CCCNC(=N)N)NC(=O)CN(Cc2cccc3ccccc23)NC(=O)[C@H](Cc2ccccc2)NC(=O)CN(Cc2cccc3ccccc23)NC(=O)[C@H](CCCCN)NC1=O` [Pep19] (cyclo([azaβ3(1Nal)]F[azaβ3(1Nal)]RRVK)), in experiment [1], the MIC was 4 µM. Further, the “Cell wall erosion by electron microscopy” value in experiment [2] was “eroded”.

These data come from PMC6615598, “Novel antibiotics effective against gram-positive and -negative multi-resistant bacteria with limited resistance” (PLoS Biology, 2019).
